# Results published in US9210927B2, “Pesticidal compositions and processes related thereto” (Dow AgroSciences LLC, priority 2013, dated 2015).
# Legend:
# BAW (Spodoptera exigua) = experiment: Bioassays on Beet Armyworm (BAW), 128-well diet tray assay; format: in vivo; conditions: Spodoptera exigua, 168 h, read-out: BAW Rating
# Experimental: (§1) Bioassays on Beet Armyworm (“BAW”) and Corn Earworm (“CEW”) and Cabbage Looper (“CL”)
# (§2) Certain molecules disclosed in this document were tested against BAW and CEW and CL using procedures described in the following examples. In the reporting of the results, the “BAW & CEW & CL Rating Table” was used (See Table Section).
# Bioassays on BAW (Spodoptera exigua)
# Bioassays on BAW were conducted using a 128-well diet tray assay. one to five second instar BAW larvae were placed in each well (3 mL) of the diet tray that had been previously filled with 1 mL of artificial diet to which 50 μg/cm^2 of the test compound (dissolved in 50 μL of 90:10 acetone-water mixture) had been applied (to each of eight wells) and then allowed to dry. Trays were covered with a clear self-adhesive cover, and held at 25° C., 14:10 light-dark for five to seven days. Percent mortality was recorded for the larvae in each well; activity in the eight wells was then averaged. The results are indicated in the table entitled “Table 3: Assay Results” (See Table Section).
# CEW (Helicoverpa zea) = experiment: Bioassays on Corn Earworm (CEW), 128-well diet tray assay; format: in vivo; conditions: Helicoverpa zea, 168 h; percent mortality, second instar larvae, 50 μg/cm^2 on artificial diet, five to seven days, 25° C.; read-out: CEW Rating
# Experimental: as §1, §2
# Bioassays on CEW (Helicoverpa zea)
# Bioassays on CEW were conducted using a 128-well diet tray assay. one to five second instar CEW larvae were placed in each well (3 mL) of the diet tray that had been previously filled with 1 mL of artificial diet to which 50 μg/cm^2 of the test compound (dissolved in 50 μL of 90:10 acetone-water mixture) had been applied (to each of eight wells) and then allowed to dry. Trays were covered with a clear self-adhesive cover, and held at 25° C., 14:10 light-dark for five to seven days. Percent mortality was recorded for the larvae in each well; activity in the eight wells was then averaged. The results are indicated in the table entitled “Table 3: Assay Results” (See Table Section).
SMILES,pest or weed control at 50 µg/cm2 (BAW (Spodoptera exigua)) [%],pest or weed control at 50 µg/cm2 (CEW (Helicoverpa zea)) [%]
"CC(=O)N1CCC(NC(=O)c2ccc(/C=C/C(c3cc(Cl)c(Cl)c(Cl)c3)C(F)(F)F)cc2Br)CC1 (stereo not shown) [AC103, (E)-N-(1-Acetylpiperidin-4-yl)-2-bromo-4-(4,4,4-trifluoro-3-(3,4,5-trichlorophenyl)but-1-en-1-yl)benzamide]",50 to 100,50 to 100
N#CCN1CCC(NC(=O)c2ccc(/C=C/C(c3cc(Cl)c(Cl)c(Cl)c3)C(F)(F)F)cc2Br)CC1 (stereo not shown) [AC107],0 to 50,50 to 100
CONC(=O)CNC(=O)c1ccc(/C=C/C(c2cc(Cl)c(Cl)c(Cl)c2)C(F)(F)F)cc1Br (stereo not shown) [AC110],50 to 100,50 to 100
C=CCNC(=O)CNC(=O)c1ccc(/C=C/C(c2cc(Cl)c(Cl)c(Cl)c2)C(F)(F)F)cc1Br (stereo not shown) [AC111],50 to 100,50 to 100
O=C(NCCc1ccc(Cl)nc1)c1ccc(/C=C/C(c2cc(Cl)c(Cl)c(Cl)c2)C(F)(F)F)cc1Br (stereo not shown) [AC113],0 to 50,50 to 100
"O=C(NC1CCNCC1)c1ccc(/C=C/C(c2cc(Cl)c(Cl)c(Cl)c2)C(F)(F)F)cc1Br (stereo not shown) [AC114, (E)-2-Bromo-N-(piperidin-4-yl)-4-(4,4,4-trifluoro-3-(3,4,5-trichlorophenyl)but-1-en-1-yl)benzamide]",50 to 100,0 to 50
"Cc1cc(/C=C/C(c2cc(Cl)cc(Cl)c2)C(F)(F)F)ccc1C(=S)NCc1ccc(Cl)nc1 (stereo not shown) [AC115, (E)-N-((6-Chloropyridin-3-yl)methyl)-4-(3-(3,5-dichlorophenyl)-4,4,4-trifluorobut-1-en-1-yl)-2-methylbenzothioamide]",50 to 100,50 to 100
O=C(NC1CCc2cc(/C=C/C(c3cc(Cl)c(Cl)c(Cl)c3)C(F)(F)F)ccc21)C1CC1 (stereo not shown) [BC6],50 to 100,50 to 100
O=C(NC1CCCc2cc(/C=C/C(c3cc(Cl)c(Cl)c(Cl)c3)C(F)(F)F)ccc21)C1CC1 (stereo not shown) [BC7],50 to 100,50 to 100
O=C(Cc1ccc(Cl)nc1)NC1CCc2cc(/C=C/C(c3cc(Cl)c(F)c(Cl)c3)C(F)(F)F)ccc21 (stereo not shown) [BC9],50 to 100,50 to 100
"O=C(CC(F)(F)F)NCC(=O)n1ccc2cc(/C=C/C(c3cc(Cl)c(F)c(Cl)c3)C(F)(F)F)ccc21 (stereo not shown) [BC13, (E)-N-(2-(5-(3-(3,5-Dichloro-4-fluorophenyl)-4,4,4-trifluorobut-1-en-1-yl)-1H-indol-1-yl)-2-oxoethyl)-3,3,3-trifluoropropanamide]",50 to 100,50 to 100
O=C(CC(F)(F)F)NCc1ccc(/C=C/C(c2cc(Cl)cc(Cl)c2)C(F)(F)F)cc1 (stereo not shown) [CC3],50 to 100,50 to 100
O=C(NCc1ccc(/C=C/C(c2cc(Cl)cc(Cl)c2)C(F)(F)F)cc1Cl)C1CC1 (stereo not shown) [CC8],50 to 100,50 to 100
FC(F)(F)C(/C=C/c1ccc(CNC(=S)C2CC2)c(Cl)c1)c1cc(Cl)c(Cl)c(Cl)c1 (stereo not shown) [CC20],50 to 100,50 to 100
O=C(NCc1ccc(/C=C/C(c2cc(Cl)cc(Cl)c2)C(F)(F)F)cc1C(F)(F)F)C1CC1 (stereo not shown) [CC21],50 to 100,50 to 100
O=C(CC(F)(F)F)NCc1ccc(/C=C/C(c2cc(Cl)c(Cl)c(Cl)c2)C(F)(F)F)cc1C(F)(F)F (stereo not shown) [CC24],50 to 100,50 to 100

SMILES,pest or weed control at 50 µg/cm2 (BAW (Spodoptera exigua)) [%],pest or weed control at 50 µg/cm2 (CEW (Helicoverpa zea)) [%]
O=C(CC(F)(F)F)NCc1ccc(/C=C/C(c2cc(Cl)c(Cl)c(Cl)c2)C(F)(F)F)cc1F (stereo not shown) [CC27],50 to 100,50 to 100
O=C(NCc1ccc(/C=C/C(c2cc(Cl)c(Cl)c(Cl)c2)C(F)(F)F)cc1F)C1CC1 (stereo not shown) [CC28],50 to 100,50 to 100
"CS(=O)(=O)CCC(=O)NCc1ccc(/C=C/C(c2cc(Cl)c(Cl)c(Cl)c2)C(F)(F)F)cc1Cl (stereo not shown) [CC30, (E)-N-(2-Chloro-4-(4,4,4-trifluoro-3-(3,4,5-trichlorophenyl)but-1-en-1-yl)benzyl)-3-(methylsulfonyl)propanamide]",50 to 100,50 to 100
"CN(C)C(=O)NCc1ccc(/C=C/C(c2cc(Cl)c(Cl)c(Cl)c2)C(F)(F)F)cc1Cl (stereo not shown) [CC36, (E)-3-(2-Chloro-4-(4,4,4-trifluoro-3-(3,4,5-trichlorophenyl)but-1-en-1-yl)benzyl)-1,1-dimethylurea]",50 to 100,50 to 100
"CCNC(=S)NCc1ccc(/C=C/C(c2cc(Cl)c(Cl)c(Cl)c2)C(F)(F)F)cc1Cl (stereo not shown) [CC37, (E)-1-(2-Chloro-4-(4,4,4-trifluoro-3-(3,4,5-trichlorophenyl)but-1-en-1-yl)benzyl)-3-ethylthiourea]",50 to 100,50 to 100
C=CCNC(=S)NCc1ccc(/C=C/C(c2cc(Cl)c(Cl)c(Cl)c2)C(F)(F)F)cc1Cl (stereo not shown) [CC38],50 to 100,50 to 100
O=C(NCc1ncc(/C=C/C(c2cc(Cl)c(Cl)c(Cl)c2)C(F)(F)F)cc1Cl)C1CC1 (stereo not shown) [CC45],50 to 100,50 to 100
"O=C(NNc1ccc(/C=C/C(c2cc(Cl)c(Cl)c(Cl)c2)C(F)(F)F)cc1)C1CC1 (stereo not shown) [CC50, (E)-N′-(4-(4,4,4-Trifluoro-3-(3,4,5-trichlorophenyl)but-1-en-1-yl)phenyl)cyclopropanecarbohydrazide]",50 to 100,50 to 100
O=C(CC(F)(F)F)NNc1ccc(/C=C/C(c2cc(Cl)c(Cl)c(Cl)c2)C(F)(F)F)cc1 (stereo not shown) [CC51],50 to 100,50 to 100
"O=C(CC(F)(F)F)NCc1ccc(/C=C\C(c2cc(Cl)c(Cl)c(Cl)c2)C(F)(F)F)cc1 (stereo not shown) [CC54, (Z)-3,3,3-Trifluoro-N-(4-(4,4,4-trifluoro-3-(3,4,5-trichlorophenyl)but-1-en-1-yl)benzyl)propanamide]",50 to 100,50 to 100
"FC(F)(F)C(/C=C/c1ccc(-n2cncn2)cc1)c1cc(Cl)cc(Cl)c1 (stereo not shown) [DC1, (E)-1-(4-(3-(3,5-Dichlorophenyl)-4,4,4-trifluorobut-1-en-1-yl)phenyl)-1H-1,2,4-triazole]",50 to 100,50 to 100
FC(F)(F)c1cc(C(/C=C/c2ccc(-n3cncn3)cc2)C(F)(F)F)cc(C(F)(F)F)c1 (stereo not shown) [DC16],50 to 100,50 to 100
N#Cc1cc(/C=C/C(c2cc(Cl)cc(C(F)(F)F)c2)C(F)(F)F)ccc1-n1cncn1 (stereo not shown) [DC33],50 to 100,50 to 100
N#Cc1cc(/C=C/C(c2cc(Cl)cc(Cl)c2)C(F)(F)F)ccc1-n1cnc([N+](=O)[O-])n1 (stereo not shown) [DC37],50 to 100,50 to 100
N#Cc1cc(/C=C/C(c2cc(Cl)cc(Cl)c2)C(F)(F)F)ccc1-n1cnc(N)n1 (stereo not shown) [DC38],50 to 100,50 to 100
CC(=O)Nc1ncn(-c2ccc(/C=C/C(c3cc(Cl)cc(Cl)c3)C(F)(F)F)cc2C#N)n1 (stereo not shown) [DC39],50 to 100,50 to 100
